Literature values in patent US7879374B2, “Composition including superoxide dismutase and prickly-pear cactus for minimizing and preventing hangovers” (priority 2005, dated 2011).

Assays:
[1] = by speeding the use of fat during exercise
[2] = recent study of one-hundred twenty young females
[3] = rat, in vivo, po
[4] = system: hepatic metabolizing enzymes for lipids and alcohol
[5] = liver of rats given sesamin vs vehicle

In the case of `Cn1c(=O)c2c(ncn2C)n(C)c1=O` [Caffeine], the increase in endurance [1] is given as “about fifteen”.

In the case of `Cc1ncc(C[n+]2csc(CCO)c2C)c(N)n1` [Thiamin], the “effects on mood and cognitive functioning” value [2] is listed as “positive effects”.

In the case of `c1cc2c(cc1[C@H]1OC[C@H]3[C@@H]1CO[C@@H]3c1ccc3c(c1)OCO3)OCO2` [Sesamin], the “dose of sesamin detected in bile as glucuronides of catechol metabolites” value [3] is listed as “Over 40 % of the dose”, the “gene expression levels of the late stage enzymes of beta-oxidation (trifunctional enzyme, acyl-CoA oxidase, bifunctional enzyme, 3-ketoacyl-CoA thiolase)” value [4, 5] is listed as “significantly increased” and the “gene expression of alcohol dehydrogenase” value [4, 5] is listed as “not changed”. The “gene expression of aldehyde dehydrogenase” value [4, 5] was “about 3 fold”, the “gene expression of liver catalase” value [4, 5] was “not changed” and the “transcription of the genes encoding the enzymes for fatty acid synthesis” value [4, 5] was “decreased”. The “gene expression of CYP2E1” value ([4]; rat, in vivo) was “not changed”.
